Test results from patent US20240216381A1, “Px-cholorogenic Acid Comps” (PX ING, LLC, priority 2022, published 2024).

Key:
[1] = system: Pentobarbital Sodium induced sleep activity in experimental mice; experiment: Pentobarbital Sodium induced sleep activity in mice; type: in vivo, Swiss Albino Mice; conditions: 50 mg HED PX or 1-MX, 25 mg HED CA; for Duration of sleep / Onset time of sleep: test substance intraperitoneal 30 min before 40 mg/kg Pentobarbital sodium; for Duration of sleep, Improvement over P-Control / Onset time of sleep, Improvement over P-Control: vs Pathological Control
Procedure: The present example was conducted to evaluate the efficacy of test substances on Pentobarbital Sodium induced sleep activity in experimental mice.
The mice were randomized into nine groups containing eight mice in each group. […] The dose information can be found below in Table 2.
On the day of experiment, mice from different groups were treated with the control and test substances respectively. After thirty minutes, all groups of mice, except for the Normal Control group were, administered with 40 mg/kg body doses of Pentobarbital sodium to induce sleep. Administration of the test substances was done via intraperitoneal injection. The onset time of sleep was recorded for all the mice. After induction of sleep, mice were placed in the inverted position and when sedation was over, time point where the mice return to its normal posture was noted. The time interval between dosing and start of sleep was recorded as latency time.

[2] = system: Scopolamine induced amnesia in rats; experiment: Cognitive enhancing effect, Elevated Plus Maze, Scopolamine induced amnesia in rats; type: in vivo, Swiss Albino Wistar rats; conditions: for rat escape latency, Elevated Plus Maze: oral daily for ten days, day 10, 30 min before 1 mg/kg Scopolamine i.p., 50 mg HED PX or 1-MX, 25 mg HED CA; for rat escape latency, Elevated Plus Maze, Improvement over P-Control: vs Pathological Control (Scopolamine)
Procedure: (§1) The example was to evaluate the effect of the test substances on behavioral activity/memory enhancing activity in experimental rats.
(§2) The rats were randomized into nine groups containing eight rats in each group. […] The rats were treated with test substances daily for ten consecutive days.
(§3) On the tenth day test, test substances were administered orally thirty minutes before a 1 mg/kg body weight Scopolamine injection to induce amnesia in rats to all groups except control group. Administration of the Scopolamine injections were done via intraperitoneal injection. This was followed by behavioral test using Elevated Plus Maze apparatus to measure the long-term memory enhancing activity.

brain biomarkers [3] = experiment: Brain biomarkers in rats of the Elevated Plus Maze example; type: in vivo, Swiss Albino Wistar rats; set-up: Achetylcholine, Improvement over P-Control / Dopamine, Improvement over P-Control / Glutathione, Improvement over P-Control / Catalse, Improvement over P-Control / BDNF, Improvement over P-Control / Serotonin, Improvement over P-Control / Cortisol, Improvement over P-Control: concentration or dose not given beside the values; conditions: for Achetylcholine, brain biomarker / BDNF, brain biomarker / Catalse, brain biomarker / Cortisol, brain biomarker / Dopamine, brain biomarker / Glutathione, brain biomarker / Serotonin, brain biomarker: oral ten days, Scopolamine 1 mg/kg; for Achetylcholine, Improvement over P-Control / BDNF, Improvement over P-Control / Catalse, Improvement over P-Control / Cortisol, Improvement over P-Control / Dopamine, Improvement over P-Control / Glutathione, Improvement over P-Control / Serotonin, Improvement over P-Control: vs Pathological Control (Scopolamine)
Procedure: as §2, §3
(§4) Several brain biomarkers were also measured in the rats.

[4] = system: Scopolamine induced amnesia in rats; experiment: Cognitive enhancing effect, Morris Water Maze, Scopolamine induced amnesia in rats; type: in vivo, Swiss Albino Wistar rats; conditions: for rat escape latency, Morris Water Maze: oral daily for ten days, day 10, 30 min before 1 mg/kg Scopolamine i.p., 50 mg HED PX or 1-MX, 25 mg HED CA; for rat escape latency, Morris Water Maze, Improvement over P-Control: vs Pathological Control (Scopolamine)
Procedure: as §1, §2
(§5) On the tenth day test, test substances were administered orally thirty minutes before a 1 mg/kg body weight Scopolamine injection to induce amnesia in rats to all groups except control group. Administration of the Scopolamine injections were done via intraperitoneal injection. This was followed by behavioral test using Morris Water Maze apparatus to measure the long-term memory enhancing activity.

brain biomarkers [5] = experiment: Brain biomarkers in rats of the Morris Water Maze example; type: in vivo, Swiss Albino Wistar rats; set-up: Achetylcholine, Improvement over P-Control / Dopamine, Improvement over P-Control / Glutathione, Improvement over P-Control: concentration or dose not given beside the values; conditions: for Achetylcholine, brain biomarker / Dopamine, brain biomarker / Glutathione, brain biomarker: oral ten days, Scopolamine 1 mg/kg; for Achetylcholine, Improvement over P-Control / Dopamine, Improvement over P-Control / Glutathione, Improvement over P-Control: vs Pathological Control (Scopolamine)
Procedure: as §2, §5, §4

| Compound | Duration of sleep [1] [min] | Onset time of sleep [1] [min] | Duration of sleep, Improvement over P-Control [1] [%] | Onset time of sleep, Improvement over P-Control [1] [%] | rat escape latency, Elevated Plus Maze [2] [s] | rat escape latency, Elevated Plus Maze, Improvement over P-Control [2] [%] | Achetylcholine, brain biomarker (brain biomarkers [3]) [U/ml] | BDNF, brain biomarker (brain biomarkers [3]) [pg/mL] | Catalse, brain biomarker (brain biomarkers [3]) [U/mL] | Cortisol, brain biomarker (brain biomarkers [3]) [ng/mL] | Dopamine, brain biomarker (brain biomarkers [3]) [ng/L] | Glutathione, brain biomarker (brain biomarkers [3]) [µg/mL] | Serotonin, brain biomarker (brain biomarkers [3]) [ng/mL] | Achetylcholine, Improvement over P-Control (brain biomarkers [3]) [%] | BDNF, Improvement over P-Control (brain biomarkers [3]) [%] | Catalse, Improvement over P-Control (brain biomarkers [3]) [%] | Cortisol, Improvement over P-Control (brain biomarkers [3]) [%] | Dopamine, Improvement over P-Control (brain biomarkers [3]) [%] | Glutathione, Improvement over P-Control (brain biomarkers [3]) [%] | Serotonin, Improvement over P-Control (brain biomarkers [3]) [%] | other results |
| --- | --- | --- | --- | --- | --- | --- | --- | --- | --- | --- | --- | --- | --- | --- | --- | --- | --- | --- | --- | --- | --- |
| O=C(/C=C/c1ccc(O)c(O)c1)O[C@@H]1C[C@](O)(C(=O)O)C[C@@H](O)[C@H]1O [Chlorogenic acid] | 74.88 | 40.5 | 169 | −20 | 30 | 68 | 33.17 | 18.05 | 161.91 | 68.51 | 15.58 | 19.89 | 38.43 | 54 | 37 | 34 | −24 | 34 | 46 | −19 | rat escape latency, Morris Water Maze [4]: 28.54 s; rat escape latency, Morris Water Maze, Improvement over P-Control [4]: 72%; Achetylcholine, brain biomarker (brain biomarkers [5]): 33.03 U/ml; Dopamine, brain biomarker (brain biomarkers [5]): 14.74 ng/L; Glutathione, brain biomarker (brain biomarkers [5]): 16.85 µg/mL; Achetylcholine, Improvement over P-Control (brain biomarkers [5]): 63%; Dopamine, Improvement over P-Control (brain biomarkers [5]): 43%; Glutathione, Improvement over P-Control (brain biomarkers [5]): 41% |
| Cn1c(=O)[nH]c2ncn(C)c2c1=O [Paraxanthine] | 66.13 | 41.5 | 137 | −18 | 36.66 | 38 | 32.04 | 17.72 | 159.83 | 73.99 | 15.06 | 19.57 | 38.03 | 49 | 34 | 32 | −18 | 30 | 44 | −20 | rat escape latency, Morris Water Maze [4]: 30.46 s; rat escape latency, Morris Water Maze, Improvement over P-Control [4]: 61%; Achetylcholine, brain biomarker (brain biomarkers [5]): 34.16 U/ml; Dopamine, brain biomarker (brain biomarkers [5]): 14.21 ng/L; Glutathione, brain biomarker (brain biomarkers [5]): 17.47 µg/mL; Achetylcholine, Improvement over P-Control (brain biomarkers [5]): 69%; Dopamine, Improvement over P-Control (brain biomarkers [5]): 38%; Glutathione, Improvement over P-Control (brain biomarkers [5]): 46% |
| Cn1c(=O)[nH]c2nc[nH]c2c1=O [1-Methylxanthine, 1-methylxanthine] | 57.75 | 42.25 | 107 | −16 | 33.89 | 49 | 28.97 | 17.29 | 155.96 | 79.4 | 14.51 | 17.94 | 41.63 | 34 | 31 | 29 | −12 | 25 | 32 | −12 | rat escape latency, Morris Water Maze [4]: 32.43 s; rat escape latency, Morris Water Maze, Improvement over P-Control [4]: 51%; Achetylcholine, brain biomarker (brain biomarkers [5]): 30.87 U/ml; Dopamine, brain biomarker (brain biomarkers [5]): 13.66 ng/L; Glutathione, brain biomarker (brain biomarkers [5]): 16.06 µg/mL; Achetylcholine, Improvement over P-Control (brain biomarkers [5]): 53%; Dopamine, Improvement over P-Control (brain biomarkers [5]): 33%; Glutathione, Improvement over P-Control (brain biomarkers [5]): 34% |
